Reference: patent US5652238A, “Esters of substituted-hydroxyacetyl piperazine phenyl oxazolidinones” (Pharmacia & Upjohn Company, priority 1996, dated 1997)
≈ marks a conversion by molar mass, not a printed value.

How the values were obtained:
[1] = system: Staphylococcus aureus UC9213 or Streptococcus species; assay: Antimicrobial activity in vivo, Murine Assay (mice infected intraperitoneally with bacteria; ED50 from survival over six days); conditions: 144 h, female mice, treatment one hour and five hours after infection
Method: Antimicrobial activity was tested in vivo using the Murine Assay procedure. Groups of female mice (six mice of 18-20 grams each) were injected intraperitoneally with bacteria which were thawed just prior to use and suspended in brain heart infusion with 4% brewers yeast UC9213 (Staphylococcus aureus) or brain heart infusion (Streptococcus species). Antibiotic treatment at six dose levels per drug was administered one hour and five hours after infection by either oral intubation or subcutaneous ("subcut.") routes. Survival was observed daily for six days. ED50 values based on mortality ratios were calculated using probit analysis. The subject compounds were compared against a well-known antimicobial (Vancomycin) as a control.

[2] = Aqueous solubility (pH 7, phosphate buffer); format: physicochemical

Row | Structure (SMILES) | ED50 ([1]; oral) | ED50 ([1]; sc, subcut.) | solubility [2]
1 | CC(=O)NC[C@H]1CN(c2cc(F)c(N3CCN(C(=O)COC(=O)c4ccc(N(C)C)cc4)CC3)c(F)c2)C(=O)O1 [Example 8, 4-dimethylaminobenzoic acid, 2-[4-[4-[5-[(acetylamino)methyl]-2-oxo-3-oxazolidinyl]-2,6-difluorophenyl]-1-piperazinyl]-2-oxoethyl ester, (S)-] | 10 mg/kg | 6 mg/kg | 10 µg/mL (≈ 0.0179 mM)
2 | CC(=O)NC[C@H]1CN(c2ccc(N3CCN(C(=O)COC(=O)c4ccc(NC(=O)CN)cc4)CC3)c(F)c2)C(=O)O1 [Example 29, 4-N-(glycinyl)aminobenzoic acid, 2-[4-[4-[5-[(acetylamino)methyl]-2-oxo-3-oxazolidinyl]-2-fluorophenyl]-1-piperazinyl]-2-oxoethyl ester, (S)-] | 9 mg/kg |  | 9800 µg/mL (≈ 17.2 mM)
3 | CC(=O)NC[C@H]1CN(c2ccc(N3CCN(C(=O)COC(=O)C(C)(CO)CO)CC3)c(F)c2)C(=O)O1 [Example 22, 2,2-bis(hydroxymethyl)propionic acid, 2-[4-[4-[5-[(acetylamino)methyl]-2-oxo-3-oxazolidinyl]-2-fluorophenyl]-1-piperazinyl]-2-oxoethyl ester, (S)-] | > 18 mg/kg | 4 mg/kg | 13000 µg/mL (≈ 25.5 mM)
4 | CC(=O)NC[C@H]1CN(c2cc(F)c(N3CCN(C(=O)COC(C)=O)CC3)c(F)c2)C(=O)O1 [Example 14, Acetic acid, 2-(4-(4-(5-((acetylamino)methyl)-2-oxo-3-oxazolidinyl)-2,6-difluorophenyl)-1-piperazinyl)-2-oxoethyl ester, (S)] | 3 mg/kg |  | 1600 µg/mL (≈ 3.52 mM)
